Results from EP2832347B1, “Method for identifying patchouli odorant materials” (Takasago International Corporation, priority 2013, dated 2015).

Biological target: T1, OR11L1 (Homo sapiens, UniProt Q8NGX0)
T1 construct: expressed in transfected cells; host or cells: HEKOlf (HEK293 stably expressing human Galpha-olf and bovine CNGA2)
T1 sequence (Q8NGX0 1-322): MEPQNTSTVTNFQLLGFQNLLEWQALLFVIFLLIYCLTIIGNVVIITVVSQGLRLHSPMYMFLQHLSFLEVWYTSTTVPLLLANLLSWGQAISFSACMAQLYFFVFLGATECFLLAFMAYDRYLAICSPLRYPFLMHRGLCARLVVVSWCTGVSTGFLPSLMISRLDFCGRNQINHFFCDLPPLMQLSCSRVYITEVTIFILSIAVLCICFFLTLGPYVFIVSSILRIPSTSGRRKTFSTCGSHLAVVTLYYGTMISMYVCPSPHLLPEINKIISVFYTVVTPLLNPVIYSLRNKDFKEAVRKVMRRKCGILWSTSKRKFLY
Assay: CRE-luciferase reporter assay in HEKOlf cells transiently transfected with OR11L1
Type: cell-based
Details: Example 3; 10/30/100 µM
Procedure: The experiments were performed using a HEK293 cell line (deposited at the ATCC under accession n° CRL-1573) stably expressing the Gαolf G-protein and the cyclic nucleotide gated ion channel A2 subunit (CNGA2) (herein called HEKOlf). As described by Shirokova et al., 2005, the human Gαolf cDNA was cloned into the mammalian expression vector pPuro and cDNA for the bovine cyclic nucleotide gated ion channel A2 (CNGA2) subunit was cloned into the mammalian expression vector pcDNA3. Both constructs were transfected using Lipofectamine2000 (Invitrogen) following the manufacturer's instructions. Cellular clones stably expressing Gαolf and CNGA2 were obtained by antibiotic selection with 0.5µg/ml Puromycin and 200µg/ml Geneticin.
All odorants were stored in the dark at 4°C upon delivery. […]
In this assay, the interaction of an odorant with its cognate olfactory receptor leads to the activation of the human Gαolf G-protein. […] The cells were then transferred into an automated fluorometric imaging plate reader (FLIPR^TETRA, Molecular Devices). […]
The data obtained from different well replicates were analyzed with Excel, ScreenWorks, and SigmaPlot 10. […] The mean and standard deviation of the resulting fold of change values were calculated and plotted in vertical bar charts or concentration-response curves fitted by the SigmaPlot 10 software. […]

C[C@H]1CC[C@@]2(O)C(C)(C)[C@@H]3CC[C@@]2(C)[C@H]1C3 [Patchouli alcohol]
response in cells transfected with OR11L1: unable to elicit a detectable response
